These compounds were tested against T1, recombinant Plk1 protein (Homo sapiens, UniProt P53350) (assay: Plk1 kinase activity inhibition assay (33P-ATP, alpha casein substrate, flash plates)). Conditions: enzymatic assay, 100 nM Li-ATP, 80 minutes at 30° C.
T1 construct: histidine tag (N); made in house; host or cells: SF9 insect cells
T1 sequence (P53350 whole entry): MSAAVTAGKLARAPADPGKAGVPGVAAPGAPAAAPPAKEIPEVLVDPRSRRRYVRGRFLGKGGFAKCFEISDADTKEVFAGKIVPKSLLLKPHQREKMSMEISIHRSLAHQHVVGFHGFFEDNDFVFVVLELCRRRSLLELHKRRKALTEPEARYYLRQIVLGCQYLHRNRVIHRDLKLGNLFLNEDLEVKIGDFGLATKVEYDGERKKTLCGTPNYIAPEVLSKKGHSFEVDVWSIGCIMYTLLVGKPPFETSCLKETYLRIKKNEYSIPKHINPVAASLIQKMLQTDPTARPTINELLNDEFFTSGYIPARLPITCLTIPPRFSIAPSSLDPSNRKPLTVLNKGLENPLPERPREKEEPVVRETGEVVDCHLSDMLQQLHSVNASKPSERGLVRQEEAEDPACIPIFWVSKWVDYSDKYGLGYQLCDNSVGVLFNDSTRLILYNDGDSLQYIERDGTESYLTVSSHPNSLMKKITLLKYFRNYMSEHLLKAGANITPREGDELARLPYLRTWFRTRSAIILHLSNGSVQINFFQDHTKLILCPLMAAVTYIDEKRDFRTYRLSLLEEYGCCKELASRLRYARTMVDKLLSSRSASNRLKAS
Assay type: biochemical
Procedure, shortened: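 IC50 derived from radioactive flash-plate counts of 33P-labelled alpha casein after 80 min at 30 °C. Reaction: 100 nM 33P-containing ATP, 50–100 ng His-tagged Plk1 (SF9-expressed), 500 ng casein per well, HEPES pH 7.5 buffer with MgCl2/MnCl2.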
Compound C[C@@H](Oc1cc(-n2cnc3cnc(CNC(C)(C)C)cc32)sc1C(N)=O)c1ccccc1C(F)(F)F [Example 114, 5-{6-[(tert-butylamino)methyl]-1H-imidazo[4,5-c]pyridin-1-yl}-3-{(1R)-1-[2-(trifluoromethyl)phenyl]ethoxy}thiophene-2-carboxamide] has an IC50 of 10 to 100 nM.
Compound C[C@@H](Oc1cc(-n2cnc3cc(CNC4CC4)ncc32)sc1C(N)=O)c1ccccc1C(F)(F)F [Example 115, 5-{6-[(cyclopropylamino)methyl]-3H-imidazo[4,5-c]pyridin-3-yl}-3-{(1R)-1-[2-(trifluoromethyl)phenyl]ethoxy}thiophene-2-carboxamide] has an IC50 of 10 to 100 nM.
CNCc1cc2ncn(-c3cc(O[C@H](C)c4ccccc4C(F)(F)F)c(C(N)=O)s3)c2cn1 [Example 116, 5-{6-[(methylamino)methyl]3H-imidazo[4,5-c]pyridin-3-yl}-3-{(1R)-1-[2-(trifluoromethyl)phenyl]ethoxy}thiophene-2-carboxamide] was tested, and the IC50 was 10 to 100 nM.
CCNCc1cc2ncn(-c3cc(O[C@H](C)c4ccccc4C(F)(F)F)c(C(N)=O)s3)c2cn1 [Example 117, 5-{6-[(ethylamino)methyl]-3H-imidazo[4,5-c]pyridin-3-yl}-3-{(1R)-1-[2-(trifluoromethyl)phenyl]ethoxy}thiophene-2-carboxamide] was tested, and the IC50 was 100 to 1000 nM.
CC(=O)N1CCN(Cc2cc3c(cn2)ncn3-c2cc(O[C@H](C)c3ccccc3C(F)(F)F)c(C(N)=O)s2)CC1 [Example 118, 5-{6-[(4-acetylpiperazin-1-yl)methyl]-1H-imidazo[4,5-c]pyridin-1-yl}-3-{(1R)-1-[2-(trifluoromethyl)phenyl]ethoxy}thiophene-2-carboxamide] showed an IC50 of 10 to 100 nM.
CC(c1ccccc1)N1CCN(Cc2cc3c(cn2)ncn3-c2cc(O[C@H](C)c3ccccc3C(F)(F)F)c(C(N)=O)s2)CC1 (stereo partly drawn) [Example 119, 5-(6-{[4-(1-phenylethyl)piperazin-1-yl]methyl}-1H-imidazo[4,5-c]pyridin-1-yl)-3-{(1R)-1-[2-(trifluoromethyl)phenyl]ethoxy}thiophene-2-carboxamide] gave an IC50 of under 10 nM.
CC(C)CN1CCN(Cc2cc3c(cn2)ncn3-c2cc(O[C@H](C)c3ccccc3C(F)(F)F)c(C(N)=O)s2)CC1 [Example 120, 5-{6-[(4-isobutylpiperazin-1-yl)methyl]-1H-imidazo[4,5-c]pyridin-1-yl}-3-{(1R)-1-[2-(trifluoromethyl)phenyl]ethoxy}thiophene-2-carboxamide] showed an IC50 of under 10 nM.
With CC(C)N1CCN(Cc2cc3c(cn2)ncn3-c2cc(O[C@H](C)c3ccccc3C(F)(F)F)c(C(N)=O)s2)CC1 [Example 121, 5-{6-[(4-isopropylpiperazin-1-yl)methyl]-1H-imidazo[4,5-c]pyridin-1-yl}-3-{(1R)-1-[2-(trifluoromethyl)phenyl]ethoxy}thiophene-2-carboxamide] the IC50 was under 10 nM.
C=CCN1CCN(Cc2cc3c(cn2)ncn3-c2cc(O[C@H](C)c3ccccc3C(F)(F)F)c(C(N)=O)s2)CC1 [Example 122, 5-{6-[(4-allylpiperazin-1-yl)methyl]-1H-imidazo[4,5-c]pyridin-1-yl}-3-{(1R)-1-[2-(trifluoromethyl)phenyl]ethoxy}thiophene-2-carboxamide] showed an IC50 of under 10 nM.
CC(Oc1cc(-n2cnc3cnc(CO)cc32)sc1C(N)=O)c1ccc(C#N)cc1Cl (centres unmarked) [Example 123, 3-[1-(2-chloro-4-cyanophenyl)ethoxy]-5-[6-(hydroxymethyl)-1H-imidazo[4,5-c]pyridin-1-yl]thiophene-2-carboxamide] gave an IC50 of under 10 nM.
Work on C[C@@H](Oc1cc(-n2cnc3cnc(CN4CCN(CC(=O)N5CCOCC5)CC4)cc32)sc1C(N)=O)c1ccccc1C(F)(F)F [Example 124, 5-(6-{[4-(2-morpholin-4-yl-2-oxoethyl)piperazin-1-yl]methyl}-1H-imidazo[4,5-c]pyridin-1-yl)-3-{(1R)-1-[2-(trifluoromethyl)phenyl]ethoxy}thiophene-2-carboxamide] yielded an IC50 of 10 to 100 nM.
With CC(Oc1cc(-n2cnc3cc(CO)ncc32)sc1C(N)=O)c1ccccc1Cl (centres unmarked) [Example 125, 3-[-1-(2-chlorophenyl)ethoxy]-5-[6-(hydroxymethyl)-3H-imidazo[4,5-c]pyridin-3-yl]thiophene-2-carboxamide] the IC50 was under 10 nM.
C[C@@H](Oc1cc(-n2cnc3cnc(CN4CCN(C)CC4CO)cc32)sc1C(N)=O)c1ccccc1C(F)(F)F (stereo partly drawn) [Example 126, 5-(6-{[2-(hydroxymethyl)-4-methylpiperazin-1-yl]methyl}-1H-imidazo[4,5-c]pyridin-1-yl)-3-{(1R)-1-[2-(trifluoromethyl)phenyl]ethoxy}thiophene-2-carboxamide] gave an IC50 of under 10 nM.
Work on C[C@@H](Oc1cc(-n2cnc3cnc(CN4CCN(CCO)CC4)cc32)sc1C(N)=O)c1ccccc1Cl [Example 127, 3-[(1R)-1-(2-chlorophenyl)ethoxy]-5-(6-{[4-(2-hydroxyethyl)piperazin-1-yl]methyl}-1H-imidazo[4,5-c]pyridin-1-yl)thiophene-2-carboxamide] yielded an IC50 of under 10 nM.
Compound C[C@@H](Oc1cc(-n2cnc3cnc(CN4CCN(C(=O)N(C)C)CC4)cc32)sc1C(N)=O)c1ccccc1Cl [Example 128, 4-[(1-{5-carbamoyl-4-[(1R)-1-(2-chlorophenyl)ethoxy]-2-thienyl}-1H-imidazo[4,5-c]pyridin-6-yl)methyl]-N,N-dimethylpiperazine-1-carboxamide] has an IC50 of under 10 nM.
Work on C[C@@H](Oc1cc(-n2cnc3cnc(CN4CCCN(C)CC4)cc32)sc1C(N)=O)c1ccccc1Cl [Example 129, 3-[(1R)-1-(2-chlorophenyl)ethoxy]-5-{6-[(4-methyl-1,4-diazepan-1-yl)methyl]-1H-imidazo[4,5-c]pyridin-1-yl}thiophene-2-carboxamide] yielded an IC50 of under 10 nM.
Work on CCN1CCN(Cc2cc3c(cn2)ncn3-c2cc(O[C@H](C)c3ccccc3Cl)c(C(N)=O)s2)CC1 [Example 130, 3-[(1R)-1-(2-chlorophenyl)ethoxy]-5-{6-[(4-ethylpiperazin-1-yl)methyl]-1H-imidazo[4,5-c]pyridin-1-yl}thiophene-2-carboxamide] yielded an IC50 of under 10 nM.
For C[C@@H](Oc1cc(-n2cnc3cnc(CN4CCN(c5ccncc5)CC4)cc32)sc1C(N)=O)c1ccccc1Cl [Example 131, 3-[(1R)-1-(2-chlorophenyl)ethoxy]-5-{6-[(4-pyridin-4-ylpiperazin-1-yl)methyl]-1H-imidazo[4,5-c]pyridin-1-yl}thiophene-2-carboxamide], the IC50 was 10 to 100 nM.
C[C@@H](Oc1cc(-n2cnc3cnc(CN4CCN(CCN(C)C)CC4)cc32)sc1C(N)=O)c1ccccc1Cl [Example 132, 3-[(1R)-1-(2-chlorophenyl)ethoxy]-5-[6-({4-[2-(dimethylamino)ethyl]piperazin-1-yl}methyl)-1H-imidazo[4,5-c]pyridin-1-yl]thiophene-2-carboxamide] showed an IC50 of 10 to 100 nM.
C[C@@H](Oc1cc(-n2cnc3cnc(CN4CCN(C(=O)N(C)C)CC4)cc32)sc1C(N)=O)c1ccccc1Br [Example 133] gave an IC50 of under 10 nM.
CC(Oc1cc(-n2cnc3cnc(CN4CCN(C(=O)N(C)C)CC4)cc32)sc1C(N)=O)c1ccccc1OC(F)F (centres unmarked) [Example 134, 4-{[1-(5-carbamoyl-4-{1-[2-(difluoromethoxy)phenyl]ethoxy}-2-thienyl)-1H-imidazo[4,5-c]pyridin-6-yl]methyl}-N,N-dimethylpiperazine-1-carboxamide] showed an IC50 of under 10 nM.
In the case of CCN1CCN(Cc2cc3c(cn2)ncn3-c2cc(OC(C)c3ccccc3OC(F)F)c(C(N)=O)s2)CC1 (centres unmarked) [Example 135, 3-{1-[2-(difluoromethoxy)phenyl]ethoxy}-5-{6-[(4-ethylpiperazin-1-yl)methyl]-1H-imidazo[4,5-c]pyridin-1-yl}thiophene-2-carboxamide], the IC50 is reported as under 10 nM.
Work on C[C@@H](Oc1cc(-n2cnc3cnc(CN4CCN(CCN(C)C)CC4)cc32)sc1C(N)=O)c1ccccc1F [Example 136, 5-[6-({4-[2-(dimethylamino)ethyl]piperazin-1-yl}methyl)-1H-imidazo[4,5-c]pyridin-1-yl]-3-[(1R)-1-(2-fluorophenyl)ethoxy]thiophene-2-carboxamide] yielded an IC50 of 100 to 1000 nM.
With CCC(Oc1cc(-n2cnc3cnc(CN4CCN(C(=O)N(C)C)CC4)cc32)sc1C(N)=O)c1ccccc1Cl (centres unmarked) [Example 137, 4-{[1-(5-carbamoyl-4-{[1-(2-chlorophenyl)propyl]oxy}-2-thienyl)-1H-imidazo[4,5-c]pyridin-6-yl]methyl}-N,N-dimethylpiperazine-1-carboxamide] the IC50 was 10 to 100 nM.
CCC(Oc1cc(-n2cnc3cnc(CN4CCN(CCO)CC4)cc32)sc1C(N)=O)c1ccccc1Cl (centres unmarked) [Example 138, 3-{[1-(2-chlorophenyl)propyl]oxy}-5-(6-{[4-(2-hydroxyethyl)piperazin-1-yl]methyl}-1H-imidazo[4,5-c]pyridin-1-yl)thiophene-2-carboxamide] gave an IC50 of 10 to 100 nM.
With CCC(Oc1cc(-n2cnc3cnc(CN4CCN(CCOC)CC4)cc32)sc1C(N)=O)c1ccccc1Cl (centres unmarked) [Example 139, 3-{[1-(2-chlorophenyl)propyl]oxy}-5-(6-{[4-(2-methoxyethyl)piperazin-1-yl]methyl}-1H-imidazo[4,5-c]pyridin-1-yl)thiophene-2-carboxamide] the IC50 was 10 to 100 nM.
CCC(Oc1cc(-n2cnc3cnc(CN4CCN(C5CC5)CC4)cc32)sc1C(N)=O)c1ccccc1Cl (centres unmarked) [Example 140, 3-{[1-(2-chlorophenyl)propyl]oxy}-5-{6-[(4-cyclopropylpiperazin-1-yl)methyl]-1H-imidazo[4,5-c]pyridin-1-yl}thiophene-2-carboxamide] showed an IC50 of 10 to 100 nM.
With CCC(Oc1cc(-n2cnc3cnc(CN4CCCN(C)CC4)cc32)sc1C(N)=O)c1ccccc1Cl (centres unmarked) [Example 141, 3-{[1-(2-chlorophenyl)propyl]oxy}-5-{6-[(4-methyl-1,4-diazepan-1-yl)methyl]-1H-imidazo[4,5-c]pyridin-1-yl}thiophene-2-carboxamide] the IC50 was 10 to 100 nM.
Compound CCC(Oc1cc(-n2cnc3cnc(CN4CCN(CC)CC4)cc32)sc1C(N)=O)c1ccccc1Cl (centres unmarked) [Example 142] has an IC50 of under 10 nM.

Reference: patent US8273890B2 (4SC AG, priority 2007, dated 2012)
